This assay concerns the target T1, Glucocorticoid Receptor (Homo sapiens, UniProt P04150).
T1 construct: expressed in transfected cells
T1 sequence (P04150 524-758 limits assumed): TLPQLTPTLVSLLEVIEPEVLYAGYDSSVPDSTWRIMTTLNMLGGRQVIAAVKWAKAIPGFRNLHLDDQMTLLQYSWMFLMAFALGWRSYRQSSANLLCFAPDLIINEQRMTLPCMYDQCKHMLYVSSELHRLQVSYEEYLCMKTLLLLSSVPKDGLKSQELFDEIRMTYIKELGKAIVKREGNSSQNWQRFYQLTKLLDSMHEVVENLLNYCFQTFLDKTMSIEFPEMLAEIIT
Put plainly: Agonistic mode of action on the glucocorticoid receptor (CHO-Gal4/GR luciferase reporter cell line). Format: cell-based. The settings on record: CHO-Gal4/GR luciferase reporter cells; observed in the agonistic assay or the antagonistic assay (mode not given); read-out: IC50 or EC50 range. An excerpt: Potential selective glucocorticoid receptor modulators of this intervention can be tested for modulation of the activity of the glucocorticoid receptor using cell-based assays. These assays involve a Chinese hamster ovary (CHO) cell line which contains fragments of the glucocorticoid receptor as well as fusion proteins. The glucocorticoid receptor fragments used are capable of binding the ligand (e.g. beclomethasone) to identify molecules that compete for binding with glucocorticoid receptor ligands. In more detail, the glucocorticoid receptor ligand binding domain is fused to the DNA binding domain (DBD) of the transcriptionfactor GAL4 (GAL4 DBD-GR) and is stably integrated into a CHO cell line containing a GAL4-UAS-Luciferase reporter construct. […] After cell lysis the luminescence that is produced by luciferase after addition of the substrate is detected and EC50 or IC50 values can be calculated. Engagement of molecules which induce gene expression via glucocortocoid receptor binding to the DNA leads to expression of the luciferase gene under the control of the fusion protein GAL4 DBD-GR and therefore to a dose-dependent increase of the luminescence signal. Binding of molecules which repress beclomethasone-induced gene expression of the luciferase gene under the control of the fusion protein GAL4 DBD-GR leads to a dose-dependent reduction of the luminescence signal.
The reporter cell line CHO-Gal4/GR consisted of a chinese hamster ovary (CHO) cell line (Leibniz Institute DSMZ—German Collection of Microorganisms and Cell Cultures GmbH: ACC-110) containing a firefly luciferase gene under the control of the GR ligand binding domain fused to the DNA binding domain (DBD) of GAL4 (GAL4 DBD-GR) stably integrated into CHO cells. This cell line was established by stable transfection of CHO cells with a GAL4-UAS-Luciferase reporter construct. In a subsequent step the ligand binding domain of the GR cloned into pIRES2-EGFP-GAL4 containing the DNA binding domain of GAL4 from pFA-AT2 was transfected. This fusion construct activated firefly luciferase expression under the control of a multimerized GAL4 upstream activation sequence (UAS). The signal of the emitted luminescence was recorded by the FLIPR^TETRA. This allowed for specific detection of ligand-induced activation of the GR and therefore for the identification of compounds with agonistic properties. The GAL4/UAS reporter was premixed with a vector that constitutively expressed Renilla luciferase, which served as an internal positive control for transfection efficiency.
The complete culture medium for the assay was: • DMEM F-12 (1:1) MIXTURE (LONZA cat. No: BE04-687F/U1) 500 mL • 5 mL of 100 mM Sodium Pyruvate (LONZA cat. No: BE12-115E) • 25 mL of 7.5% Sodium Bicarbonate (LONZA cat. No BE17-613E) • 6.5 mL of 1 M Hepes (LONZA cat. No: BE17-737E) • 5 mL of 100× Penicillin/Streptomycin (LONZA cat. No DE17-602E) • 50 mL of Fetal Bovine Serum (Euroclone cat. No ECS 0180L) • 0.25 mL of 10 mg/mL Puromycin (InvivoGen cat.: ant-pr-1) • 0.5 mL of 100 mg/mL Zeocin (InvivoGen cat.: ant-zn-1)
Cryo-preserved CHO-Gal4/GR cells were suspended in complete medium and 5000 cells/25 μl/well were seeded into the wells of 384-well polystyrene assay plates (Thermo Scientific, cat. #4332) and cultured at 37° C., 5% CO2 and 95% humidity. After 24 hours growth medium was carefully removed and replaced by 30111 Opti-MEM (GIBCO, cat. #31985062) as assay buffer. To test the compounds an 8-point half-log compound dilution curve was generated in 100% DMSO starting from a 2 mM stock and compounds were then diluted 1:50 in Opti-MEM. 10111 of compounds were then added to the wells containing 30 μl Opti-MEM resulting in a final assay concentration range from 10 μM to 0.003 μM in 0.5% DMSO. Compounds were tested at 8 concentrations in quadruplicate data points. […] Finally, cells were lysed with 20 μl of Triton/Luciferin solution and the signal of the emitted luminescence was recorded at the FLIPR^TETRA for 2 minutes. […]
On to `Cc1nnc2n1-c1c(CO)c(-c3cc(F)cc4c3ccn4S(C)(=O)=O)cc(F)c1NC2(C)C` [Example 453, [6-Fluoro-8-(6-fluoro-1-methylsulfonyl-1H-indol-4-yl)-1,4,4-trimethyl-5H-[1,2,4]triazolo[4,3-a]quinoxalin-9-yl]-MeOH], for which the IC50 or EC50 (antagonist or agonist mode, not stated per compound) is less than 100 nM.
In the case of `Cc1c(-c2cc(F)cc3c(C)c[nH]c23)cc(Cl)c2c1-n1c(C)nnc1C(C)(C)N2` [Example 454, 6-Chloro-8-(5-fluoro-3-methyl-1H-indol-7-yl)-1,4,4,9-tetramethyl-5H-[1,2,4]triazolo[4,3-a]quinoxaline], the IC50 or EC50 (antagonist or agonist mode, not stated per compound) is less than 100 nM.
For `Cc1nnc2n1-c1c(c(F)cc(-c3cc(F)cc4c3ccn4S(C)(=O)=O)c1C(F)F)NC2(C)C` [Example 455, 9-(difluoromethyl)-6-fluoro-8-(6-fluoro-1-(methylsulfonyl)-1H-indol-4-yl)-1,4,4-trimethyl-4,5-dihydro-[1,2,4]triazolo[4,3-a]quinoxaline] the value was less than 100 nM; for `Cc1c(-c2cccc3c2ccn3S(C)(=O)=O)cc(Cl)c2c1-n1c(C)nnc1C(C)(C)N2` [Example 456, 6-Chloro-1,4,4,9-tetramethyl-8-(1-methylsulfonyl-1H-indol-4-yl)-5H-[1,2,4]triazolo[4,3-a]quinoxaline], less than 100 nM.
For `Cc1c(-c2cc(F)cc3c2ccn3S(C)(=O)=O)cc(Cl)c2c1-n1c(C)nnc1C(C)(C)N2` [Example 457, 6-Chloro-8-(6-fluoro-1-methylsulfonyl-1H-indol-4-yl)-1,4,4,9-tetramethyl-5H-[1,2,4]triazolo[4,3-a]quinoxaline] the value was less than 100 nM.
For `Cc1c(-c2cccc3c2cnn3S(C)(=O)=O)cc(Cl)c2c1-n1c(C)nnc1C(C)(C)N2` [Example 458, 6-Chloro-1,4,4,9-tetramethyl-8-(1-methylsulfonyl-1H-indazol-4-yl)-5H-[1,2,4]triazolo[4,3-a]quinoxaline] the value was 100 to 1000 nM; for `Cc1nnc2n1-c1c(c(F)cc(-c3cccc4c3ccn4S(C)(=O)=O)c1C(F)F)NC2(C)C` [Example 459, 9-(Difluoro-methyl)-6-fluoro-1,4,4-trimethyl-8-(1-methylsulfonyl-1H-indol-4-yl)-5H-[1,2,4]triazolo[4,3-a]quinoxaline], less than 100 nM; for `CCS(=O)(=O)n1ccc2c(-c3cc(F)c4c(c3C(F)F)-n3c(C)nnc3C(C)(C)N4)cc(F)cc21` [Example 460, 9-(Difluoro-methyl)-8-[1-(ethylsulfonyl)-6-fluoro-1H-indol-4-yl]-6-fluoro-1,4,4-trimethyl-5H-[1,2,4]triazolo[4,3-a]quinoxaline], less than 100 nM.
As to `CCS(=O)(=O)n1ccc2c(-c3cc(F)c4c(c3C(F)F)-n3c(C)nnc3C(C)(C)N4)cccc21` [Example 461, 9-(Difluoro-methyl)-8-[1-(ethylsulfonyl)-1H-indol-4-yl]-6-fluoro-1,4,4-trimethyl-5H-[1,2,4]triazolo[4,3-a]quinoxaline], the IC50 or EC50 (antagonist or agonist mode, not stated per compound) fell in the range of 100 to 1000 nM.
Regarding `Cc1c[nH]c2c(-c3cc(F)c4c(c3C(F)F)-n3c(C)nnc3C(C)(C)N4)cc(F)cc12` [Example 462, 9-(Difluoro-methyl)-6-fluoro-8-(5-fluoro-3-methyl-1H-indol-7-yl)-1,4,4-trimethyl-5H-[1,2,4]triazolo[4,3-a]quinoxaline], the IC50 or EC50 (antagonist or agonist mode, not stated per compound) was less than 100 nM.
For `Cc1c(-c2cc(F)cc3c2ccn3CCO)cc(Cl)c2c1-n1c(C)nnc1C(C)(C)N2` [Example 463, 2-[4-(6-Chloro-1,4,4,9-tetramethyl-5H-[1,2,4]triazolo[4,3-a]quinoxalin-8-yl)-6-fluoro-1H-indol-1-yl]-EtOH] the value was less than 100 nM.
Regarding `CCc1c(-c2cc(F)cc3c2ccn3CCO)cc(F)c2c1-n1c(C)nnc1C(C)(C)N2` [Example 464, 2-[4-(9-Ethyl-6-fluoro-1,4,4-trimethyl-5H-[1,2,4]triazolo[4,3-a]quinoxalin-8-yl)-6-fluoro-1H-indol-1-yl]-EtOH], the IC50 or EC50 (antagonist or agonist mode, not stated per compound) is 100 to 1000 nM.
For `Cc1c(-c2cc(F)cc3[nH]ccc23)cc(F)c2c1-n1c(C)nnc1C(C)(C)N2` [Example 465, 6-fluoro-8-(6-fluoro-1H-indol-4-yl)-1,4,4,9-tetramethyl-4,5-dihydro-[1,2,4]triazolo[4,3-a]quinoxaline] the value was less than 100 nM.
As to `Cc1n[nH]c2c(-c3cc(F)c4c(c3C(F)F)-n3c(C)nnc3C(C)(C)N4)cccc12` [Example 466, 9-(difluoromethyl)-6-fluoro-1,4,4-trimethyl-8-(3-methyl-1H-indazol-7-yl)-4,5-dihydro-[1,2,4]triazolo[4,3-a]quinoxaline], the IC50 or EC50 (antagonist or agonist mode, not stated per compound) was 100 to 1000 nM.
For the compound `Cc1nnc2n1-c1c(c(F)cc(-c3cc(F)cc4c3cnn4S(C)(=O)=O)c1C1CC1)NC2(C)C` [Example 467, 9-Cyclopropyl-6-fluoro-8-(6-fluoro-1-methylsulfonyl-1H-indazol-4-yl)-1,4,4-trimethyl-5H-[1,2,4]triazolo[4,3-a]quinoxaline], the IC50 or EC50 (antagonist or agonist mode, not stated per compound) is 100 to 1000 nM.
For `Cc1c(-c2cccc3[nH]ccc23)cc(F)c2c1-n1c(C)nnc1C(C)(C)N2` [Example 468, 6-Fluoro-8-(1H-indol-4-yl)-1,4,4,9-tetramethyl-5H-[1,2,4]triazolo[4,3-a]quinoxaline] the value was less than 100 nM; for `COc1c(-c2cccc3[nH]ccc23)cc(F)c2c1-n1c(C)nnc1C(C)(C)N2` [Example 469, 6-Fluoro-8-(1H-indol-4-yl)-9-methoxy-1,4,4-trimethyl-5H-[1,2,4]triazolo[4,3-a]quinoxaline], 100 to 1000 nM.
For `COc1c(-c2cc(F)cc3[nH]ccc23)cc(F)c2c1-n1c(C)nnc1C(C)(C)N2` [Example 470, 6-Fluoro-8-(6-fluoro-1H-indol-4-yl)-9-methoxy-1,4,4-trimethyl-5H-[1,2,4]triazolo[4,3-a]quinoxaline] the value was 100 to 1000 nM; for `Cc1nnc2n1-c1c(c(F)cc(-c3cc(F)cc4c3ccn4S(C)(=O)=O)c1C1CC1)NC2(C)C` [Example 471, 9-Cyclopropyl-6-fluoro-8-(6-fluoro-1-methylsulfonyl-1H-indol-4-yl)-1,4,4-trimethyl-5H-[1,2,4]triazolo[4,3-a]quinoxaline], less than 100 nM; for `Cc1c[nH]c2c(-c3cc(F)c4c(c3C3CC3)-n3c(C)nnc3C(C)(C)N4)cccc12` [Example 472, 9-Cyclopropyl-6-fluoro-1,4,4-trimethyl-8-(3-methyl-1H-indol-7-yl)-5H-[1,2,4]triazolo[4,3-a]quinoxaline], 100 to 1000 nM.

The values are drawn from patent US11981677B2, “Further substituted triazolo quinoxaline derivatives” (Grünenthal GmbH, priority 2018, dated 2024).
